Reference: patent EP4741383A1, “COMPOUND AND USE THEREOF AS ANTI-CANCER DRUG” (Tyligand Bioscience (Shanghai) Limited, priority 2023, dated 2025)

tested on: MV4-11; assay: CellTiter-Glo cell proliferation inhibition, MV4-11; format: cell-based, human; settings: Homo sapiens; MV4-11 cells, 72 hours, CellTiter-Glo; read-out: IC50 (µM) M V4-11
Description: (§1) In this study, the CellTiter-Glo® Luminescent Cell Viability Assay kit from Promega was used to evaluate the inhibitory effects of the disclosed compounds on the proliferation of cell lines KYSE520 (a human esophageal squamous cell carcinoma cell line dependent on SHP2 for growth), MeWo (a human malignant melanoma cell line), and MV4-11 (an RTK-mutant human acute monocytic leukemia cell line).
Using essentially the same experimental materials, MV4-11 cells (Nanjing Cobio Biotechnology Co., Ltd., Catalog #CBP60522) were treated similarly: when thawing the cells, the cryovial was rapidly shaken in a 37 °C water bath to thaw within 1 minute. The thawed cell suspension was mixed with IMDM culture medium containing 10% FBS (HyClone, Catalog #SH30228.01), centrifuged at 1000 rpm for 7 minutes, and the supernatant was discarded. The cell pellet was resuspended in 5 mL of complete culture medium (IMDM medium containing 10% FBS) placed in a cell culture flask with 25 cm^2 of bottom area, and cultured in a cell culture incubator at 37 °C, 95% humidity, and 5% CO2. Cell passaging was performed when the cell density reached approximately 10^6 cells/mL. During cell passaging, the old cell suspension was thoroughly mixed, 1/5 of the cell suspension was retained, and 4 mL of new complete culture medium was added. After thorough mixing, the cells were placed back in the cell culture incubator for further culture. Cell plating was performed when the cell density again reached approximately 10^6 cells/mL. During cell plating, following the cell passage method, 1/5 of the cell suspension was retained for continued culture, and the remaining 4/5 of the cell suspension was placed in a 15 mL centrifuge tube. Cell viability was determined using the trypan blue exclusion method to ensure that cell viability was above 90%. A cell suspension with a density of 1.11 × 10^5 viable cells/mL was prepared using complete culture medium. 90 µL of the cell suspension was added to a 96-well cell culture plate, resulting in a cell density of 10000 viable cells/well. A control group without cells and without compounds, containing only complete culture medium (i.e., culture medium control) and a control group without compounds but containing cells (i.e., cell control) were set up. The cell plate was incubated overnight in the cell culture incubator. First, a 10 mM stock solution of the compound (Example compound and positive control compound 11a-1) in DMSO was serially diluted with DMSO at a 3-fold dilution, down to the 9th concentrations. A 10th concentration containing only DMSO (without the compound) was also prepared as a control. Then, the DMSO solutions containing different concentrations of the compound were diluted 100-fold with complete culture medium, resulting in a DMSO concentration of 1% in each solution. Finally, 10 µL of each solution was added to the corresponding wells of a cell culture plate, resulting in an initial compound concentration of 10 µM, with a 3-fold dilution between adjacent concentrations, and a DMSO concentration of 0.1% in the cell culture plate. The cell plate was then incubated in a cell culture incubator for 72 hours.
(§2) For endpoint detection, CellTiter-Glo reagent (Promega, catalog number #G7573, CellTiter-Glo® Luminescent Cell Viability Assay Kit) was melt and each cell plate was moved to room temperature for equilibration for 30 minutes. 75 µL (KYSE520 cells) or 50 µL (MeWo cells and MV 4-11 cells) of CellTiter-Glo was added to each well of the corresponding cell plate. The plates were shaken on a track-mounted shaker for 2 minutes to fully lyse the cells. The cell plates were kept at room temperature for 8 minutes to stabilize the luminescence signal. A multi-mode microplate reader (PerkinEImer, Envision 2105 Multimode plate Read) was used to full-wavelength scan the luminescence value of each well. […]

IC50 [µM]	SMILES
0.097	O=C(Nc1ccc(-c2csc(CO)c2)cc1)C(=O)Nc1ccc(-c2cc3cc(F)c(-c4nnn[nH]4)cc3n2C2CCC2)cc1 [Example 1]
0.216	N#CCc1cc(-c2ccc(NC(=O)C(=O)Nc3ccc(-c4cc5cc(F)c(-c6nnn[nH]6)cc5n4C4CCC4)cc3)cc2)cs1 [Example 2]
0.358	CC1(n2c(-c3ccc(NC(=O)C(=O)Nc4ccc(-c5cnn(C6COC6)c5)cc4)cc3)cc3cc(F)c(-c4nnn[nH]4)cc32)CC1 [Example 6]
0.254	CC1(n2c(-c3ccc(NC(=O)C(=O)Nc4ccc(-c5cnn(C6CCOCC6)c5)cc4)cc3)cc3cc(F)c(-c4nnn[nH]4)cc32)CC1 [Example 7]
5.13	Cn1c(-c2cccc(NC(=O)C(=O)Nc3ccc(-c4ccsc4)cc3)c2)c(I)c2cc(C(=O)O)c(O)cc21 [Example 11a-1, reference compound]
0.262	O=C(Nc1ccc(-c2cc3cc(F)c(-c4nnn[nH]4)cc3n2C2CCC2)cc1)C(=O)Nc1ccc(N2CCC(CO)C2)cc1 (stereo not shown) [Example 12]
0.155	O=C(Nc1ccc(-c2cc3cc(F)c(-c4nnn[nH]4)cc3n2C2CCC2)cc1)C(=O)Nc1ccc(N2CCC(CCO)C2)cc1 (stereo not shown) [Example 14]
0.137	CC1(CO)CCN(c2ccc(NC(=O)C(=O)Nc3ccc(-c4cc5cc(F)c(-c6nnn[nH]6)cc5n4C4CCC4)cc3)cc2)C1 (stereo not shown) [Example 16]
0.129	CC1(n2c(-c3ccc(NC(=O)C(=O)Nc4ccc(N5CCC(CCO)CC5)cc4)cc3)cc3cc(F)c(-c4nnn[nH]4)cc32)CCC1 [Example 26]
0.13	CC(O)C1CCN(c2ccc(NC(=O)C(=O)Nc3ccc(-c4cc5cc(F)c(-c6nnn[nH]6)cc5n4C4CCC4)cc3)cc2)CC1 (stereo not shown) [Example 29]
0.177	O=C(Nc1ccc(-c2cc3cc(F)c(-c4nnn[nH]4)cc3n2C2CCC2)cc1)C(=O)Nc1ccc(N2CC3(CCCOC3)C2)cc1 [Example 55]
0.213	O=C(Nc1ccc(-c2cc3cc(F)c(-c4nnn[nH]4)cc3n2C2CCC2)cc1)C(=O)Nc1ccc(N2CCC3(COC3)C2)cc1 [Example 59]
0.202	O=C(Nc1ccc(-c2cc3cc(F)c(-c4nnn[nH]4)cc3n2C2CCC2)cc1)C(=O)Nc1ccc(N2CCC3(CCCOC3)C2)cc1 (stereo not shown) [Example 62]
0.129	O=C(Nc1ccc(-c2cc3cc(F)c(-c4nnn[nH]4)cc3n2C2CCC2)cc1)C(=O)Nc1ccc(N2CCC3(CCCOC3)CC2)cc1 [Example 74]
0.133	CC1(O)CCC2(CC1)CN(c1ccc(NC(=O)C(=O)Nc3ccc(-c4cc5cc(F)c(-c6nnn[nH]6)cc5n4C4CCC4)cc3)cc1)C2 [Example 83]
0.168	CC1(O)CC2(CCN(c3ccc(NC(=O)C(=O)Nc4ccc(-c5cc6cc(F)c(-c7nnn[nH]7)cc6n5C5(C)CCC5)cc4)cc3)CC2)C1 [Example 95]
0.329	CC1(n2c(-c3ccc(NC(=O)C(=O)Nc4ccc(N5CCC6(CCC(O)C6)CC5)cc4)cc3)cc3cc(F)c(-c4nnn[nH]4)cc32)CCC1 (stereo not shown) [Example 101]
0.124	COC1CC(n2c(-c3ccc(NC(=O)C(=O)Nc4ccc(N5CCC6(CCC(O)C6)CC5)cc4)cc3)cc3cc(F)c(-c4nnn[nH]4)cc32)C1 (stereo not shown) [Example 103]
0.243	CC1(n2c(-c3ccc(NC(=O)C(=O)Nc4ccc(N5CCC6(CCC(O)CC6)CC5)cc4)cc3)cc3cc(F)c(-c4nnn[nH]4)cc32)CCC1 [Example 109]
0.127	CC1(O)CC2CN(c3ccc(NC(=O)C(=O)Nc4ccc(-c5cc6cc(F)c(-c7nnn[nH]7)cc6n5C5CCC5)cc4)cc3)CC2C1 (stereo not shown) [Example 117]
0.131	CC1(O)CC2CN(c3ccc(NC(=O)C(=O)Nc4ccc(-c5cc6cc(F)c(-c7nnn[nH]7)cc6n5C5(C)CCC5)cc4)cc3)CC2C1 (stereo not shown) [Example 118]

SMILES	IC50 [µM]
CC1(O)CCC2(CCN(c3ccc(NC(=O)C(=O)Nc4ccc(-c5cc6cc(F)c(-c7nnn[nH]7)cc6n5C5(C)CCC5)cc4)cc3)CC2)CC1 [Example 111]	0.122

tested on: MeWo; assay: CellTiter-Glo cell proliferation inhibition, MeWo; format: cell-based, human; settings: Homo sapiens, MeWo, 72 h, MeWo cells, CellTiter-Glo
Procedure: as §1
Using essentially the same experimental materials, MeWo cells (ATCC, catalog #HTB-65) were treated similarly: when thawing the cells, the cryovial was rapidly shaken in a 37 °C water bath to thaw the cells within 1 minute. The thawed cell suspension was mixed with MEM/EBSS culture medium containing 10% FBS (HyClone, catalog #SH30024.01), centrifuged at 1000 rpm for 5 minutes, and the supernatant was discarded. The cell pellet was resuspended in 5 mL of complete culture medium (MEM/EBSS medium containing 10% FBS), placed in a cell culture flask with 25 cm^2 of bottom area, and cultured in a cell culture incubator at 37 °C, 95% humidity, and 5% CO2. Cell passaging was performed when the cell confluence reached approximately 80%. During cell passaging, the old culture medium was discarded, the cells were washed once with DPBS, and 1 mL of trypsin was added to digest the cells. When the cells dispersed into single cells and detached from the bottom of the cell culture flask, 3 mL of new complete culture medium was added to stop the digestion. After thoroughly mixing the cell suspension, 1/5 of the cell suspension was retained, 5 mL of new complete culture medium was added, and after thorough mixing, the cells were placed in a cell culture flask for further culture. Cell plating was performed when the cell confluence again reached approximately 80%. During cell plating, following the cell passaging method, 1/5 of the cell suspension was retained for further culture, and the remaining 4/5 of the cell suspension was placed in a 15 mL centrifuge tube. Cell viability was determined using the trypan blue exclusion method to ensure that cell viability was above 90%. A cell suspension with a density of 2.22 × 10^4 cells/mL was prepared using MEM/EBSS culture medium containing 5% FBS. 90 µL of the cell suspension was added to a 96-well cell culture plate, resulting in a cell density of 2000 viable cells/well in the cell culture plate. A control group without cells and without compounds, containing only complete culture medium (i.e., culture medium control), and a control group without compounds but containing cells (i.e., cell control) were set up. The cell plate was cultured overnight in the cell culture incubator. First, a 10 mM stock solution of the compound (Example compound and positive control compound 11a-1) in DMSO was serially diluted with DMSO at a 3-fold dilution, down to the 9th concentration. A 10th concentration containing only DMSO (without the compound) was also prepared as a control. Then, the DMSO solutions containing different concentrations of the compound were diluted 100-fold with complete culture medium, resulting in a 1% DMSO concentration in each solution. Finally, 10 µL of each solution was added to the corresponding wells of the cell culture plate, resulting in a starting compound concentration of 10 µM, with a 3-fold dilution between adjacent concentrations, and a 0.1% DMSO concentration in the cell culture plate. The cell plates were then incubated in a cell culture incubator for 72 hours.
as §2, with “signal.” for “signal. A multi-mode microplate reader (PerkinEImer, Envision 2105 Multimode plate Read) was used to full-wavelength scan the luminescence value of each well.”

SMILES	IC50 [µM]
O=C(Nc1ccc(-c2csc(CO)c2)cc1)C(=O)Nc1ccc(-c2cc3cc(F)c(-c4nnn[nH]4)cc3n2C2CCC2)cc1 [Example 1]	0.032
CC1(n2c(-c3ccc(NC(=O)C(=O)Nc4ccc(-c5cnn(C6COC6)c5)cc4)cc3)cc3cc(F)c(-c4nnn[nH]4)cc32)CC1 [Example 6]	0.113
CC1(n2c(-c3ccc(NC(=O)C(=O)Nc4ccc(-c5cnn(C6CCOCC6)c5)cc4)cc3)cc3cc(F)c(-c4nnn[nH]4)cc32)CC1 [Example 7]	0.111
Cn1c(-c2cccc(NC(=O)C(=O)Nc3ccc(-c4ccsc4)cc3)c2)c(I)c2cc(C(=O)O)c(O)cc21 [Example 11a-1, reference compound]	3.1
O=C(Nc1ccc(-c2cc3cc(F)c(-c4nnn[nH]4)cc3n2C2CCC2)cc1)C(=O)Nc1ccc(N2CCC(CO)C2)cc1 (stereo not shown) [Example 12]	0.082
O=C(Nc1ccc(-c2cc3cc(F)c(-c4nnn[nH]4)cc3n2C2CC2)cc1)C(=O)Nc1ccc(N2CCC3(CCOC3)CC2)cc1 [Example 69]	0.093
O=C(Nc1ccc(-c2ccsc2)cc1)C(=O)Nc1ccc(-c2cc3ccc(-c4nnn[nH]4)cc3n2C2CCC2)cc1 [Example 122]	0.409
Cn1cc(-c2ccc(NC(=O)C(=O)Nc3ccc(-c4cc5cc(F)c(-c6noc(=O)[nH]6)cc5n4C4CCC4)cc3)cc2)cn1 [Example 123]	0.118
Cn1cc(-c2ccc(NC(=O)C(=O)Nc3ccc(-c4cc5cc(F)c(-c6nnc(C(F)(F)F)[nH]6)cc5n4C4CCC4)cc3)cc2)cn1 [Example 124]	1.55
O=C(Nc1ccc(-c2ccsc2)cc1)C(=O)Nc1ccc(-c2oc3cc(F)c(-c4nnn[nH]4)cc3c2C2CCC2)cc1 [Example 130]	0.162
O=C(Nc1ccc(-c2ccsc2)cc1)C(=O)Nc1ccc(-c2cc3cc(F)c(-c4nnn[nH]4)nc3n2C2CCC2)cc1 [Example 132]	0.291
O=C(Nc1ccc(-c2ccsc2)cc1)C(=O)Nc1ccc(-c2sc3cc(F)c(-c4nnn[nH]4)cc3c2C2CCC2)cc1 [Example 133]	0.686

same assay, conditions: Homo sapiens; MeWo cells, 72 hours, CellTiter-Glo

SMILES	IC50 [µM]
O=C(Nc1ccc(-c2oc3cc(F)c(-c4nnn[nH]4)cc3c2C2CCC2)cc1)C(=O)Nc1ccc(N2CCC3(CCOC3)CC2)cc1 [Example 125]	0.764
O=C(Nc1ccc(-c2ccsc2)cc1)C(=O)Nc1ccc(-c2cc3ccc(-c4nnn[nH]4)nc3n2C2CCC2)cc1 [Example 129]	0.176
O=C(Nc1ccc(-c2ccsc2)cc1)C(=O)Nc1ccc(-c2cc3cc(F)c(-c4nnn[nH]4)c(F)c3n2C2CCC2)cc1 [Example 134]	0.27
